Experimental data taken from patent publication US6355619B1, “Peptide tumor cell growth inhibitors” (Board of Regents, The University of Texas System, priority 1996, dated 2002).
Where two headings read alike, the source gives them in different places.

Tests used:
[1] = system: IL-8 receptors on neutrophils; experiment: Inhibition of 125I-labeled IL-8 binding to human neutrophils
Method: Therefore, in pursuing this aim, the present inventors assayed various other peptide compositions for IL-8 inhibitory activity by screening a library of 400 groups of hexapeptides. In these screening assays, ^125I-labeled interleukin-8 (10^−12 M) was mixed with 100 μM peptide, then added to neutrophils and incubated at 4° C. for 90 min. The bound radioactivity was separated from unbound by centrifugation through a dense cushion of a mixture of paraffin and silicon oils and the ^125I bound to neutrophils was counted in a gamma radiation spectrometer, allowing the results to be expressed as the percent of IL-8 binding which was inhibited.
The use of human subjects for acquisition of neutrophils was approved by the Institutional Review Board for human experimentation. For the preparation of neutrophils, human blood was anticoagulated with heparin for enzyme release studies and with 0.33% sodium citrate for other studies. For chemotactic and enzyme release studies neutrophils were separated by dextran sedimentation and erythrocyte lysis by the method of Boyum (Kohler and Milstein, 1975). For binding studies and cytotoxic studies, the neutrophils were further purified in gradients of Percoll (Pharmacia Fine Chemicals, Piscataway, N.J.) to a purity of 90-93% (Kohler and Milstein, 1975).
Recombinant human IL-8 (72 amino acids; Pepro Tech Inc., Rocky Hill, N.J.) was radioactively labeled with ^125I by the chloramine T method of Hunter and Greenwood (Hunter and Greenwood, 1962). Binding studies were performed according to Besemer et al. (1989), as follows: Neutrophils in phosphate buffered saline pH 7.4 (PBS) containing 0.1% bovine serum albumin (BSA) were incubated with labeled ligand in the presence or absence of the peptide being tested for 90 min at 4° C. to reach equilibrium and then centrifuged at 12,000×g for 3 min in Beckman B microfuge (Beckman Instruments, Fullerton, Calif.), through a cushion consisting of a mixture of paraffin oil Fisher Scientific, Fair Lawn, N.J.) and silicon oil (Serva Co., N.Y., N.Y.). The pellet and supernatant were then counted in a gamma radiation spectrometer. The non-specific binding was estimated to measure the binding in the presence of 100-fold excess of non-labeled ligand. The binding constants were calculated using the computer programs Lundon I and Lundon II.
In these studies, a screening for inhibition was carried out at 100 μM concentration of the peptide being tested, with a 10^−12 M concentration of IL-8. In the first series of studies, twenty peptides were synthesized with the carboxyl-terminal residue of RRWWCX (SEQ ID NO:23) being changed to each of the standard protein amino acids in turn.

Hs 294T melanoma cells = experiment: Binding of 125I-IL-8 to Hs 294T melanoma cells; parameters: species or system human
Method: (§1) FIG. 12. The specificity of the receptor binding. The melanoma cells, Hs 294T (closed symbols) and RPMI-7951 (open symbols), were incubated with indicated concentrations of radiolabeled MGSA/GROα (circles) or IL-8 (triangles). The non-specific binding was estimated by the binding in the presence of 100 fold excess of unlabeled material. Specific binding which is calculated by subtracting non-specific binding from total binding is shown in this figure.
(§2) Binding studies with melanoma cell lines were performed by the method of Horuk and colleagues (Horuk et al., 1993). Briefly, the cells (1×10^5 cells/well) in 24-well plates were washed two times with Hank's Balanced Salt Solution and incubated with ^125I-labeled MGSA/GROα or IL-8 in the buffer containing 1% bovine serum albumin at 4° C. for 3 hr. The incubation was terminated by vacuum aspiration of the supernatant. The cells were washed three times in binding buffer, solubilized by the addition of 200 μl of 1% SDS, and transferred to vials for counting. The non-specific binding was estimated by measuring the binding in the presence of 100-fold excess of non-labeled ligand. The binding parameters were calculated using the Lundon II computer program (Lundon Software Inc., Chagrin Falls, Ohio).

RPMI-7951 melanoma cells = experiment: Binding of 125I-IL-8 to RPMI-7951 melanoma cells
Method: as §1, §2

[2] = IL-8 alone, binding inhibition curves, Lundon II

IL-8: Recombinant human IL-8 (72 amino acids; Pepro Tech Inc.), radiolabeled ligand [reference compound]
Bmax of IL-8, one-site model ([1]; 0 μM peptide, binding isotherms, Lundon I): 174.2 ± 14.5 fmole/10^6 cells
Kd ([1]; 0 μM peptide, binding isotherms, Lundon I, read-out: Kd of IL-8, one-site model): 1.3 ± 0.2 nM
Receptor 1 Bmax of IL-8 [1, 2]: 38.8 ± 0.6 fmole/10^6 cells
Receptor 2 Bmax of IL-8 [1, 2]: 68.8 ± 0.7 fmole/10^6 cells
Kd ([1]; IL-8 alone, binding inhibition curves, Lundon II, read-out: Receptor 1 Kd of IL-8): 0.03 nM
Kd ([1]; IL-8 alone, binding inhibition curves, Lundon II, read-out: Receptor 2 Kd of IL-8): 0.67 ± 0.04 nM
specific binding of IL-8 to melanoma cells (Hs 294T melanoma cells): no specific binding
specific binding of IL-8 to melanoma cells (RPMI-7951 melanoma cells): no specific binding
